The text below walks through data of ChEMBL document CHEMBL4725218, “Deep Learning Enhancing Kinome-Wide Polypharmacology Profiling: Model Construction and Experiment Validation” (J Med Chem, 2020).

The target of test [1] is Mitogen-activated protein kinase 14 (Homo sapiens) (UniProt Q16539). The test is described as follows: Inhibition of human p38alpha assessed as remaining enzyme activity at 1 uM.
The target in test [2] is Tyrosine-protein kinase ABL1 (Mus musculus) (UniProt P00520). As to the kind of experiment: Inhibition of mouse Abl assessed as remaining enzyme activity at 1 uM.
Test [3] addresses Tyrosine-protein kinase Blk (Mus musculus) (UniProt P16277). As to the kind of experiment: Inhibition of mouse BLK assessed as remaining enzyme activity at 1 uM.
For test [4], the target named is BDNF/NT-3 growth factors receptor (Homo sapiens) (UniProt Q16620). The test is described as follows: Inhibition of human TRKB assessed as remaining enzyme activity at 1 uM.
Test [5] addresses Ephrin type-A receptor 2 (Homo sapiens) (UniProt P29317). The test is described as follows: Inhibition of human EphA2 assessed as remaining enzyme activity at 1 uM.
In test [6] the target is Tyrosine-protein kinase ABL1 (Homo sapiens) (UniProt P00519). The test is described as follows: Inhibition of human ABL assessed as remaining enzyme activity at 1 uM.
For test [7], the target named is Tyrosine-protein kinase ABL2 (Mus musculus) (UniProt Q4JIM5). As to the kind of experiment: Inhibition of mouse ARG assessed as remaining enzyme activity at 1 uM.
The target of test [8] is Macrophage colony-stimulating factor 1 receptor (Homo sapiens) (UniProt P07333). The test is described as follows: Inhibition of human FMS assessed as remaining enzyme activity at 1 uM.
The target of test [9] is Homeodomain-interacting protein kinase 3 (Homo sapiens) (UniProt Q9H422). The test is described as follows: Inhibition of human HIPK3 assessed as remaining enzyme activity at 1 uM.
Test [10] concerns the target MAP kinase-interacting serine/threonine-protein kinase 2 (Homo sapiens) (UniProt Q9HBH9). The test is described as follows: Inhibition of human MNK2 assessed as remaining enzyme activity at 1 uM.
Test [11] is filed under the species Homo sapiens. The test is described as follows: Inhibition of human p70S6K assessed as remaining enzyme activity at 1 uM.
The target of test [12] is Mitogen-activated protein kinase 14 (Homo sapiens) (UniProt Q16539). As to the kind of experiment: Inhibition of human p38alpha assessed as remaining enzyme activity at 0.1 uM.
Test [13] concerns the target Tyrosine-protein kinase ABL1 (Mus musculus) (UniProt P00520). The test is described as follows: Inhibition of mouse Abl assessed as remaining enzyme activity at 0.1 uM.
Test [14] addresses BDNF/NT-3 growth factors receptor (Homo sapiens) (UniProt Q16620). The test is described as follows: Inhibition of human TRKB assessed as remaining enzyme activity at 0.1 uM.
Test [15] concerns the target Serine/threonine-protein kinase B-raf (Homo sapiens) (UniProt P15056). The test is described as follows: Inhibition of human B-Raf assessed as remaining enzyme activity at 0.1 uM.
Test [16] addresses Macrophage colony-stimulating factor 1 receptor (Homo sapiens) (UniProt P07333). As to the kind of experiment: Inhibition of human FMS assessed as remaining enzyme activity at 0.1 uM.
Test [17] concerns the target Vascular endothelial growth factor receptor 1 (Homo sapiens) (UniProt P17948). As to the kind of experiment: Inhibition of human VEGFR1 assessed as remaining enzyme activity at 0.01 uM.
Test [18] addresses Vascular endothelial growth factor receptor 2 (Homo sapiens) (UniProt P35968). The test is described as follows: Inhibition of human VEGFR2 assessed as remaining enzyme activity at 0.01 uM.
Test [19] deals with Tyrosine-protein kinase ABL1 (Mus musculus) (UniProt P00520). As to the kind of experiment: Inhibition of mouse Abl assessed as remaining enzyme activity at 0.01 uM.
Test [20] has as its target Tyrosine-protein kinase FRK (Homo sapiens) (UniProt P42685). The test is described as follows: Inhibition of human PTK5 assessed as remaining enzyme activity at 0.01 uM.
Test [21] deals with T1, Ephrin type-A receptor 8 (Homo sapiens) (UniProt P29322).
T1 sequence (whole entry): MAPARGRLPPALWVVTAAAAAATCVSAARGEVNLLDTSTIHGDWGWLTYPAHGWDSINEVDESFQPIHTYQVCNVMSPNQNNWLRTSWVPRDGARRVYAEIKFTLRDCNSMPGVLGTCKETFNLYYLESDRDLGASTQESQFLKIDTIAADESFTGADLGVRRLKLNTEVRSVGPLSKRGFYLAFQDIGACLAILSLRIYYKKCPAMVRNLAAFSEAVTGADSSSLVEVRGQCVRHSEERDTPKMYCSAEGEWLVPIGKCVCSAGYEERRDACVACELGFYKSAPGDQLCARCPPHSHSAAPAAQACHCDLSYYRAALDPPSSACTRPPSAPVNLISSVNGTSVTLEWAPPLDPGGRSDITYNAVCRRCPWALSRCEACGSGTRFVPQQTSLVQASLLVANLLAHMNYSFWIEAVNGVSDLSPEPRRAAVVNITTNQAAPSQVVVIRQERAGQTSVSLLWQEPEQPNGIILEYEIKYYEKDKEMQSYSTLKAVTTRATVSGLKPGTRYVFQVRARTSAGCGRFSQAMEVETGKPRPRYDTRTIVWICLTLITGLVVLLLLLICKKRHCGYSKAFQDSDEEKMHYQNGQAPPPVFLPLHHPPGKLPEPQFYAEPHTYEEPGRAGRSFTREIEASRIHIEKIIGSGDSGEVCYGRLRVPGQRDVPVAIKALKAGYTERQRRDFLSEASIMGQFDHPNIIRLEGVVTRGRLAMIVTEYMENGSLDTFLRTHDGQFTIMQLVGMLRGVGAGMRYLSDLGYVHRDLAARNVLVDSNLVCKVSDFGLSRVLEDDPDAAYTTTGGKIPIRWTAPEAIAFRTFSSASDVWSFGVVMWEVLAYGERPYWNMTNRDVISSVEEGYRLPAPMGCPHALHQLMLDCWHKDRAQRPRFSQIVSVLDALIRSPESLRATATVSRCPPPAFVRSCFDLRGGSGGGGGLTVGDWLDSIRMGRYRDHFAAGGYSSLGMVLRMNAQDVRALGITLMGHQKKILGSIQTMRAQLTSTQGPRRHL
As to the kind of experiment: Inhibition of human EphA8 assessed as remaining enzyme activity at 0.01 uM.

Test [22] deals with RAF proto-oncogene serine/threonine-protein kinase (Homo sapiens) (UniProt P04049). As to the kind of experiment: Inhibition of human C-Raf assessed as remaining enzyme activity at 0.01 uM.
Test [23] deals with Homeodomain-interacting protein kinase 2 (Homo sapiens) (UniProt Q9H2X6). The test is described as follows: Inhibition of human HIPK2 assessed as remaining enzyme activity at 0.01 uM.

Sequence of Tyrosine-protein kinase ABL1 (Mus musculus) (P00520 whole entry): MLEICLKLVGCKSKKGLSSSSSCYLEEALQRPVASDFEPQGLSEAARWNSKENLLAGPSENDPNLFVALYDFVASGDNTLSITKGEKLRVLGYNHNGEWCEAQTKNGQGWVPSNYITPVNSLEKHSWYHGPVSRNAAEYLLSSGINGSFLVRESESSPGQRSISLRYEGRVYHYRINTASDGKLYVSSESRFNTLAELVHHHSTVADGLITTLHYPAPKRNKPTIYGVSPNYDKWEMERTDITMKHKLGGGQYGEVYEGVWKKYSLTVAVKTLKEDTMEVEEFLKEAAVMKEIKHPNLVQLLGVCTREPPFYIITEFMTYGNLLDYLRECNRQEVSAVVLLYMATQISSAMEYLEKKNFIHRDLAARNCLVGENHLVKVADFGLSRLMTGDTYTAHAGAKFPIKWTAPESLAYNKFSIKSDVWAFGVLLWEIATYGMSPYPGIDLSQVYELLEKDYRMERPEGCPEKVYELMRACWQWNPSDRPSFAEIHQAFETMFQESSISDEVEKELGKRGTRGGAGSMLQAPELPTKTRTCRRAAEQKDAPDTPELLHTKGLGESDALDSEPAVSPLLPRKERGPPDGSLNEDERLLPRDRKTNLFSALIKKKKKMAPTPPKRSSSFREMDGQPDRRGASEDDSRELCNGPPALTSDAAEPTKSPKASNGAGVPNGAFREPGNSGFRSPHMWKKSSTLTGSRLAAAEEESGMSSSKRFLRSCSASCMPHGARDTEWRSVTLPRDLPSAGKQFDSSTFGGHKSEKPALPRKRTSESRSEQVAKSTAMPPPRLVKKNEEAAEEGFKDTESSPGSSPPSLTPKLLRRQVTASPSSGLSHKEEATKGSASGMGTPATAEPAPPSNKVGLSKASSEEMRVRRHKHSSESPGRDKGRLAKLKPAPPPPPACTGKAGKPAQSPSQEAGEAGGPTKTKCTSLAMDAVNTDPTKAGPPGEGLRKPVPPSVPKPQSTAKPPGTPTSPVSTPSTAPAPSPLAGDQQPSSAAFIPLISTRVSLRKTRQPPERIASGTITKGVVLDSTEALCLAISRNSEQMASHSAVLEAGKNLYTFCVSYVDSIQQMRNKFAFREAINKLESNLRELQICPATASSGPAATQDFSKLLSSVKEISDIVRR
Sequence of BDNF/NT-3 growth factors receptor (Homo sapiens) (Q16620 32-822 limits assumed): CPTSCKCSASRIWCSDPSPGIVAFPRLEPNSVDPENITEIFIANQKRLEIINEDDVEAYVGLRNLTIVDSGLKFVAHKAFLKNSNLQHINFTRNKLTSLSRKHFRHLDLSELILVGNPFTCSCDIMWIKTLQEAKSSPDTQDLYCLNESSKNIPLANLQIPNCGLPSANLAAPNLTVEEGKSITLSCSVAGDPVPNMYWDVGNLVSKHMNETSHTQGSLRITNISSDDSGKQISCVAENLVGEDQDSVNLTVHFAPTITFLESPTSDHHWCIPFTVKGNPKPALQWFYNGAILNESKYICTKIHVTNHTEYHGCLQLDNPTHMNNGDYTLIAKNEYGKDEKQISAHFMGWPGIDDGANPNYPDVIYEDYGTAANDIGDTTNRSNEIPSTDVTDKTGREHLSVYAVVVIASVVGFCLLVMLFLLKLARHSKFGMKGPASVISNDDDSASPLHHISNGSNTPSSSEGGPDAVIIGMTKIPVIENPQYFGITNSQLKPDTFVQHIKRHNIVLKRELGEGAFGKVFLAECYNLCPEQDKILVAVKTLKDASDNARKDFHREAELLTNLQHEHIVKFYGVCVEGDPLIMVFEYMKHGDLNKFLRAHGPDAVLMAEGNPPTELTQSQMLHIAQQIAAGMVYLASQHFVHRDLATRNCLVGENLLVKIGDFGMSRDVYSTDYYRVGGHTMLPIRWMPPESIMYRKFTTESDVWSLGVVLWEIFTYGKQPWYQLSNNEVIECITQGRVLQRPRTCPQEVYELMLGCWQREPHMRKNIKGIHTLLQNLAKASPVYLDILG
Sequence of Mitogen-activated protein kinase 14 (Homo sapiens) (Q16539 whole entry): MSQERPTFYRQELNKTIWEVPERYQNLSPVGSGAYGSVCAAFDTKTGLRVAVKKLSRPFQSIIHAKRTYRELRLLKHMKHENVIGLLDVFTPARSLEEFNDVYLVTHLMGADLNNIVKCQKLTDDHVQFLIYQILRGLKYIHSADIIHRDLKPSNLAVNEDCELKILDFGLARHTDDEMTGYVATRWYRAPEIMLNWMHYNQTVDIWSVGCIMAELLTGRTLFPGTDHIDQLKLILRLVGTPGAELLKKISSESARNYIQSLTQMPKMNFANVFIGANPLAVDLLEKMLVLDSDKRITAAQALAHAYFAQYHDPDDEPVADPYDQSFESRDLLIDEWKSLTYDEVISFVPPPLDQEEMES
Sequence of Macrophage colony-stimulating factor 1 receptor (Homo sapiens) (P07333 whole entry): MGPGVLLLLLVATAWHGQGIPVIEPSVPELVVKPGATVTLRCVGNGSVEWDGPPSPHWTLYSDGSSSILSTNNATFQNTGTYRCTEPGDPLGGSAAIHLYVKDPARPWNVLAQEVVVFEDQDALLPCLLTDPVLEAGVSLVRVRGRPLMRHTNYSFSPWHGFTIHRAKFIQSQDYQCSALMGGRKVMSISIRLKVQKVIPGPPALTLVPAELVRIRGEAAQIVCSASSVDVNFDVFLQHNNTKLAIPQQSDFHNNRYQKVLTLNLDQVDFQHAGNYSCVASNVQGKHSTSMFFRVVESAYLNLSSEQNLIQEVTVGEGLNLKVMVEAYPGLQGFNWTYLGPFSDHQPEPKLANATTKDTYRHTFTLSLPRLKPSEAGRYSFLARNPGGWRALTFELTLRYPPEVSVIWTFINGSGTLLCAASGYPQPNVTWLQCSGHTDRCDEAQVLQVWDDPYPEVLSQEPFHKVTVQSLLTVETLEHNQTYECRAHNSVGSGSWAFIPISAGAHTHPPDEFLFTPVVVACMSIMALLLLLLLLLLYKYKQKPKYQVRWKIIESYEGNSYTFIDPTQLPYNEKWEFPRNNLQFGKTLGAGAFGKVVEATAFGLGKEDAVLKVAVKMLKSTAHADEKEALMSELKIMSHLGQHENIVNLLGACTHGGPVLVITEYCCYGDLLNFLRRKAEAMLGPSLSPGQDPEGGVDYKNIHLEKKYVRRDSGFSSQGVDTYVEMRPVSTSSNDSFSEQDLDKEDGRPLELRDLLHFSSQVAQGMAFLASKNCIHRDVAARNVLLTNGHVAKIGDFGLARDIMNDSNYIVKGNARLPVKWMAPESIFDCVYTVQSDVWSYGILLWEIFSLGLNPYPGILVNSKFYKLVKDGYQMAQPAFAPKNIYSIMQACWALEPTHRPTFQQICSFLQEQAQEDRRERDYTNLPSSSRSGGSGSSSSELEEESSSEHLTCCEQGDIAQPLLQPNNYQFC
Sequence of Tyrosine-protein kinase Blk (Mus musculus) (P16277 whole entry): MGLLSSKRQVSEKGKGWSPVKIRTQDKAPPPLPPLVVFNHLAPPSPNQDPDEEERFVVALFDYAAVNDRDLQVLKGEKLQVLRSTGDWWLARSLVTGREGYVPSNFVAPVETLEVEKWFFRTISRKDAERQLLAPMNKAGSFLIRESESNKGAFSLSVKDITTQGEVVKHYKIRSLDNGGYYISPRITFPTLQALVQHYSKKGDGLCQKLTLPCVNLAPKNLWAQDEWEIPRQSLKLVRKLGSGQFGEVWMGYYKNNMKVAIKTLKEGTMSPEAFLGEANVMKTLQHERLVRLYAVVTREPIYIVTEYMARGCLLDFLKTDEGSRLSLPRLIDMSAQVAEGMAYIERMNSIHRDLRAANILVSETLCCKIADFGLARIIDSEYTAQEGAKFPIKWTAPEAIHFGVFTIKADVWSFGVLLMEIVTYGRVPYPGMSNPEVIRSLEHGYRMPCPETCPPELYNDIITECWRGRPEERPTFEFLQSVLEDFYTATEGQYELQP
Sequence of Tyrosine-protein kinase ABL1 (Homo sapiens) (P00519 whole entry): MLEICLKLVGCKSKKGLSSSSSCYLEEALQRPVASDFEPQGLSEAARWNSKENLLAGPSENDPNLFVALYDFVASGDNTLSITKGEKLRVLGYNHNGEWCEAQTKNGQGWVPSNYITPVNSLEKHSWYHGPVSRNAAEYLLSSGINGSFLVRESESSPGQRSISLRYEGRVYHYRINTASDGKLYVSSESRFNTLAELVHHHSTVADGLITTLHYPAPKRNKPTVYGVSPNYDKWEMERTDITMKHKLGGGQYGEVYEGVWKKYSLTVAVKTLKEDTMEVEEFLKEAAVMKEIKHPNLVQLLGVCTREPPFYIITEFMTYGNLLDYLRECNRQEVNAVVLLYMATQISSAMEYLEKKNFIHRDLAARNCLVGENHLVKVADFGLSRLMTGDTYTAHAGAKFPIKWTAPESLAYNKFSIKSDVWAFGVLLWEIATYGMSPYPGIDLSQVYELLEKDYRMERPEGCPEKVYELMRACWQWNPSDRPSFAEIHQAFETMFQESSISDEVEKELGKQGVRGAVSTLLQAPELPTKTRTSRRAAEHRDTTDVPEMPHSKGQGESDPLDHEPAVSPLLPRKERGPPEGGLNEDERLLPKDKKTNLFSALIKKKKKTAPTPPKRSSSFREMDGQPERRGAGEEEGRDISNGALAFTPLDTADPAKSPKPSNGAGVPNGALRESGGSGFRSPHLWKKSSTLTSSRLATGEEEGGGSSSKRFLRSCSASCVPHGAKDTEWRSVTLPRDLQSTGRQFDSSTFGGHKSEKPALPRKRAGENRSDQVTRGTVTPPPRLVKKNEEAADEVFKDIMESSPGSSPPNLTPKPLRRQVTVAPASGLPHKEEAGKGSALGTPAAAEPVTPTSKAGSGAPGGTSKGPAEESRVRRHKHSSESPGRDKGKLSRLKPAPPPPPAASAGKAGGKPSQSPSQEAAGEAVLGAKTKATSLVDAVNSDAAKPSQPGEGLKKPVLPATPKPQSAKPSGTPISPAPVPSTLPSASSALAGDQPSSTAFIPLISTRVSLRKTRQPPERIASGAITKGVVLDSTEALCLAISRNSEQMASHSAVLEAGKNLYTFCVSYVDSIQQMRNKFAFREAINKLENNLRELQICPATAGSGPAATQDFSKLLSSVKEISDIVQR

`CNC(=O)c1cc(Oc2ccc(NC(=O)Nc3ccc(Cl)c(C(F)(F)F)c3)c(F)c2)ccn1`: the Activity in test [1] is -6%; in [2] it was -1%; in test [3] it was 1%; in test [4], 1%; in test [5] it was 5%; in test [6], 8%. Also, the Activity in test [7] is 9%; in test [8], 10%; in test [9] it was 12%; in [10], 34%; in test [11], 36%; in test [12], 52%. Moreover, the Activity was -7% in [13]; 53% in test [14]; 66% in test [15]; 36% in test [16]; 43% in test [17]; 68% in test [18]. In addition, the Activity in test [19] was found to be 22%; in test [20], 64%; in test [21], 85%; in test [22], 93%; in [23] it was 96%.
